From patent US20040059104A1, “Nucleotide mimics and their prodrugs” (priority 2002, published 2004) come the findings set out here.

As usually defined, the half-life is the time needed for the level to fall by half in the phase considered. A lower half-life goes with rapid decline. In general, Ki refers to a dissociation constant, usually derived from enzyme kinetics or from competition with a known ligand.

The structures appear in SMILES notation.

One data set is described as follows: in vitro. As to conditions: bovine, serum, Half-Life, Serum Half-Lives of NTPs and AZT Triphosphate Mimics.
Data set [1] deals with T1, HIV Reverse Transcriptase (Type B, 66 kDa subunit) (Human immunodeficiency virus type 1 group M subtype B, UniProt P04585).
T1 construct: purified HIV Reverse Transcriptase (Type B, 66 kDa subunit)
In words: HIV Reverse Transcriptase inhibition assays (RNA-directed DNA polymerization, PicoGreen fluorescence). It is filed as biochemical. As to conditions: Table 1; template (homopolymer or heteropolymer RNA) not stated; read-out: Ki, Inhibition of HIV Reverse Transcriptase by Nucleotide Mimics.

`[BH3-][P+](O)(OCC1OC(n2cc(C)c(=O)[nH]c2=O)CC1N=[N+]=[N-])OP(=O)(O)C(F)(F)P(=O)(O)O` (single isomer, unassigned) [Compound 27-isomer 1, 3′-Azido-3′-deoxythymidine 5′-α-P-borano-β,γ-(difluoromethylene)triphosphate] came in with a half-life at 500 μM in “in vitro” greater than 48 h. Further, the Ki in data set [1] came out at 8 nM.
